Each block holds one molecule with its values, some of them ahead of it.
Tests used:
[1] = target: T1, Ileal Bile Acid Transporter Human (Homo sapiens, UniProt Q12908); test: ISBT Hu HEK Uptake SPA: Human HEK Glycocholic acid Uptake Radiometric SPA; type: cell-based; conditions: human IBAT in HEK cells
T1 construct: expressed in transfected cells; host or cells: HEK
T1 sequence (Q12908 1-348): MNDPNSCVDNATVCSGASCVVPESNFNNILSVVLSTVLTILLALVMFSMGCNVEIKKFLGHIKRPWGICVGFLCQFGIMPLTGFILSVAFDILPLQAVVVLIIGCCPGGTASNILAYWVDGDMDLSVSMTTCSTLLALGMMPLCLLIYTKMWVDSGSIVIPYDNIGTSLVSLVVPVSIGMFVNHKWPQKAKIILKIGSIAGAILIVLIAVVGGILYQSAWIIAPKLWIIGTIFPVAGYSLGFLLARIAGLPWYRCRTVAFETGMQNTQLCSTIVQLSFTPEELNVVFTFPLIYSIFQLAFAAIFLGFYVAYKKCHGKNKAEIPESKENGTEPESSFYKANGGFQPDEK
Experimental: ISBT Hu HEK Uptake SPA 13203 IBAT HUM Ileal Bile Acid Transporter Human HEK Glycocholic acid Uptake Radiometric—SPA Inhibitor IC50 Mean IC50 (nM) was determined for the compounds of examples 1-14

[2] = Phase IIb placebo-controlled study in patients with Chronic Idiopathic Constipation: plasma glucose; type: in vivo, human (patients); conditions: for Glucose concentration, Baseline, Mean ± SD: 10 mg group
Text: In a Phase Ilb, Double-blind, Randomised, Placebo-controlled, Multi-centre, Dose-finding,
Efficacy and Safety of a Range of Doses of the substance according to Example 14 in Patients with Chronic Idiopathic Constipation in addition also have glucose values above Upper limit of normal (ULN), treated for 56 days. The patient was a male or non-pregnant female 20 years of age and 80 years of age with body mass index (BMI) 18.5 but <35.
p-values were obtained from an analysis of covariance with treatment group, demographic group and treatment-by-demographic group as fixed factors and baseline value as a covariate in the model. No adjustment for multiple comparisons was made.

Slc10a2 protein = target: T2, Slc10a2 protein (Mus musculus, UniProt P70172); test: ob/ob mice gavaged with Slc10a2 inhibitor for 11 days: plasma, liver and distal ileum analyses; type: in vivo
T2 construct: from tissue; host or cells: living male ob/ob mice (Taconic), ileum in vivo
T2 sequence (P70172 1-348): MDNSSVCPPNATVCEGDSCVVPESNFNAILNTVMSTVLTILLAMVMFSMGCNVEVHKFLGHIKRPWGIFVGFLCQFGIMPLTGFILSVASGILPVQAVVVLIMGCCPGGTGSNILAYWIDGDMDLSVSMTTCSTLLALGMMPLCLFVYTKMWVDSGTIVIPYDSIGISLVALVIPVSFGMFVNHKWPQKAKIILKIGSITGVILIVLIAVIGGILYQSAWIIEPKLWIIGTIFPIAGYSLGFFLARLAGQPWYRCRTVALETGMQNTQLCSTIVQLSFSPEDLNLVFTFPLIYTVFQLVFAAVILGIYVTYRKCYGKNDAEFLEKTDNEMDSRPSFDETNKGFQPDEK
Text: A diet enriched in sucrose (D12329, Research Diets, NJ) together with drinking water supplemented with 10% fructose was used for the high carbohydrate experiment. Animals had free access to the diet for two weeks. Control animals received standard mouse chow and tap water. Male ob/ob animals were from Taconic, DK. Ob/ob animals were gavaged with a specific Slc10a2 inhibitor Example 14 or a control vehicle for 11 days. Animals had free access to food and water. All animal care and experiments were conducted in accordance with accepted standards of humane animal care and approved by the Ethics Committee of Goteborg University.
Blood was centrifuged, and plasma was analyzed for total cholesterol and TGs using the IL TestTM cholesterol 181618-10 and TG 181610-60 kits on the Monarch 2000 system (IL Scandinavia, Gothenburg, Sweden). Lipoprotein cholesterol profiles were obtained by separation of […] of plasma using a micro fast protein liquid chromatography (FPLC) system for the generation of lipoprotein profiles (15). Plasma insulin levels were analyzed using a rodent insulin RIA kit (Linco, St. Charles, Mich.). Total plasma glucose was analyzed using the IL Test (IL Scandinavia, Gothenburg, Sweden) on the Monark 2000 system. Blood glucose was determined using a Bayer Elite glucometer (Bayer diagnostics, Germany). Plasma free fatty acids were analyzed employing a commercial 3 NEFA kit (Wako Chemicals
Total RNA was extracted from frozen livers or distal ileum with TRIzol reagent (Invitrogen, Carlsbad, Calif.). The RNA was DNase-treated with RQ1 Dnase (Promega, Madison, Wis.). cDNA synthesis and quantitative real time PCR was performed employing HPRT as endogenous control (18). Primer and probe information are available upon request.
A ligand blot employing ^125I-labeled rabbit β-VLDL was used to detect LDL receptors in liver as described (19). Hepatic SR-BI was assayed by immunoblot using a rodent specific rabbit polyclonal antibody (Novus Biologicals Inc., Littleton, Colo.), as described (20). Cyp7a1 protein levels were assayed in liver microsomal protein samples by immunoblot using a rabbit polyclonal antibody directed against the C-terminus of the CYP7A1 (18). To detect SREBP1 protein, cytoplasmic and nuclear protein preparations from liver were performed using the NE—PER reagent (Pierce), including Complete protease inhibitor (Roche), 1 mM phenyl-methylsulfonyl fluoride, 0.5 mM leupeptin, 5 μg/ml Calpain inhibitor I (Biomol, Pa.), following the manufacturer's instructions. 50 μg and 25 μg of cytoplasmic and nuclear liver protein fractions, respectively, were electrophoresed on NuPage Bis-Tris gels (Invitrogen) and transferred to nitrocellulose membranes. Membranes were blocked in 5% skimmed milk powder and incubated with a mouse monoclonal antibody raised against the N′-terminus of SREBP1 (Labvision Corporation, Calif.) at 1.5 μg/mL in 5% skimmed milk powder for two hours at room temperature. An HRP conjugated goat anti-mouse F(ab)2 antibody (Pierce) was used for detection of specific signals together with Supersignal reagent (Pierce) and a Fuji BAS 1800 analyzer (Fuji Photo Film Co.). To analyze phosphorylated liver proteins by western blot, total liver protein homogenates were prepared from frozen tissue by homogenization using a polytron followed by sonication in a buffer containing 20 mM Tris-Hcl, pH 7,4, 1% Triton X-100, 10% Glycerol, 150 mM NaCl, 2 mM EDTA, 25 mM betaglycerophosphate, 20 mM sodium floride, 1 mM sodium orthovanadate, 2 mM sodium pyrophosphate, 1 mM benzamidine, 1 mM phenyl-methylsulfonyl fluoride, 0.5 mM leupeptin, Complete proteinase inhibitor (Roche), and then centrifuged at 14 000 rpm in a microcentrifuge, and the supernatant was recovered. 50 μg protein was loaded on NuPage Bis-Tris gels (Invitrogen) and transferred to nitrocellulose membranes. […]

[3] = western blot with phosphospecific antibodies

IC50 [1]: 0.35 nM
Compound: CCCCC1(CCCC)CN(c2ccccc2)c2cc(SC)c(OCC(=O)N[C@@H](C(=O)N[C@@H](CSC)C(=O)O)c3ccccc3)cc2S(=O)(=O)N1 [Example 4, 1,1-Dioxo-3,3-dibutyl-5-phenyl-7-methylthio-8-(N-{(R)-α-[N-((R)-1-carboxy-2-methylthioethyl)carbamoyl]benzyl}carbamoylmethoxy)-2,3,4,5-tetrahydro-1,2,5-benzothiadiazepine]

IC50 [1]: 0.3 nM
Compound: CCCCC1(CCCC)CN(c2ccccc2)c2cc(SC)c(OCC(=O)N[C@@H](C(=O)N[C@@H](C)C(=O)O)c3ccc(O)cc3)cc2S(=O)(=O)N1 [Example 12]

IC50 [1]: 0.36 nM
Compound: CCCCC1(CCCC)CN(c2ccccc2)c2cc(SC)c(OCC(=O)N[C@@H](C(=O)N[C@H](C(=O)O)C(C)C)c3ccccc3)cc2S(=O)(=O)N1 [Example 7, 1,1-Dioxo-3,3-dibutyl-5-phenyl-7-methylthio-8-(N-{(R)-α-[N-((S)-1-carboxy-2-methylpropyl)carbamoyl]benzyl}carbamoylmethoxy)-2,3,4,5-tetrahydro-1,2,5-benzothiadiazepine]

IC50 [1]: 0.18 nM
Compound: CCCCC1(CCCC)CN(c2ccccc2)c2cc(SC)c(OCC(=O)N[C@@H](C(=O)N[C@@H](CC)C(=O)O)c3ccccc3)cc2S(=O)(=O)N1 [Example 3, 1,1-Dioxo-3,3-dibutyl-5-phenyl-7-methylthio-8-(N-{(R)-α-[N-((S)-1-carboxypropyl)carbamoyl]benzyl}carbamoylmethoxy)-2,3,4,5-tetrahydro-1,2,5-benzothiadiazepine]

IC50 [1]: 0.2 nM
Compound: CCCCC1(CCCC)CN(c2ccccc2)c2cc(SC)c(OCC(=O)N[C@@H](C(=O)N[C@@H](C)C(=O)O)c3ccccc3)cc2S(=O)(=O)N1 [Example 10, 1,1-Dioxo-3,3-dibutyl-5-phenyl-7-methylthio-8-(N-{(R)-α-[N-((S)-1-carboxyethyl)carbamoyl]benzyl}carbamoylmethoxy)-2,3,4,5-tetrahydro-1,2,5-benzothiadiazepine]

IC50 [1]: 1.2 nM | Total plasma TG levels reduced (Slc10a2 protein; 11 days treatment): 73% | Fasting levels of glucose reduced vs vehicle (Slc10a2 protein; 11 days treatment, blood glucose): 30% | Fasting insulin levels reduced (Slc10a2 protein; 11 days treatment, plasma): 50% | Total plasma cholesterol increased (Slc10a2 protein; 11 days treatment, tendency): 16% | FGF15 mRNA level (Slc10a2 protein; 11 days, distal ileum): significantly reduced | FXR gene expression (Slc10a2 protein; 11 days, distal ileum): unaltered | IBABP mRNA level (Slc10a2 protein; 11 days, distal ileum): significantly reduced | SHP mRNA level (Slc10a2 protein; 11 days, distal ileum): significantly reduced | Hepatic G6Pase expression (Slc10a2 protein; 11 days, liver): reduced | Hepatic GK mRNA level (Slc10a2 protein; 11 days, liver): increased | Hepatic LPK mRNA reduced (Slc10a2 protein; 11 days, liver): 30% | Hepatic PEPCK expression (Slc10a2 protein; 11 days, liver): reduced | Hepatic SREBP1c mRNA levels (Slc10a2 protein; 11 days, liver): markedly reduced | Hepatic cholesterol and TG content (Slc10a2 protein; 11 days, liver, vs control): no difference | Hepatic ACC mRNA level decreased (Slc10a2 protein; 11 days, liver, vs vehicle): 50% | Hepatic FAS mRNA level decreased (Slc10a2 protein; 11 days, liver, vs vehicle): 80% | Hepatic SCD1 mRNA level (Slc10a2 protein; 11 days, liver, vs vehicle): not significantly altered | Hepatic mRNA expression of FGF21 (Slc10a2 protein; 11 days, liver, vs vehicle): doubled | Hepatic mRNA level of CYP7A1 (Slc10a2 protein; 11 days, liver, vs vehicle): increased | Akt serine 473 phosphorylation in liver lysates (Slc10a2 protein; [3]): reduced | Mek1/2-Erk1/2 pathway activation in liver (Slc10a2 protein; [3]): reduced activation
Compound: CCCCC1(CCCC)CN(c2ccccc2)c2cc(SC)c(OCC(=O)N[C@@H](C(=O)NCC(=O)O)c3ccccc3)cc2S(=O)(=O)C1 [Example 14, 1,1-Dioxo-3,3-dibutyl-5-phenyl-7-methylthio-8-(N-{ (R)-1′-phenyl-1′-[N′-(carboxymethyl)carbamoyl]methyl}carbamoylmethoxy)-2,3,4,5-tetrahydro-1,5-benzothiazepine]
Glucose concentration, Baseline, Mean ± SD ([2]; patients with glucose >ULN, n=4, before treatment): 129.8 ± 7.4 mg/dL | Glucose concentration, End of Treatment, Mean ± SD ([2]; patients with glucose >ULN, 10 mg, 56 days, n=4): 82 ± 10.23 mg/dL | Glucose concentration % change baseline to end of treatment ([2]; patients with glucose >ULN, 10 mg, 56 days, p 0.013 vs placebo): −36.9% | Reduction of glucose concentration, baseline vs end of treatment ([2]; patients with glucose higher than ULN, 10 mg, 56 days): 36% | Change of glucose concentration, baseline vs end of treatment ([2]; patients with glucose lower or equal to ULN): did not show any significant change | Glucose concentration, Baseline, Mean ± SD ([2]; patients with glucose ≦ULN, n=25, before treatment): 91.3 ± 7.52 mg/dL | Glucose concentration, End of Treatment, Mean ± SD ([2]; patients with glucose ≦ULN, 10 mg, 56 days, n=25): 90.6 ± 12.96 mg/dL | Glucose concentration % change baseline to end of treatment ([2]; patients with glucose ≦ULN, 10 mg, 56 days, p 0.653 vs placebo): −1%

IC50 [1]: 0.16 nM
Compound: CCCCC1(CCCC)CN(c2ccccc2)c2cc(SC)c(OCC(=O)N[C@@H](C(=O)N[C@@H](CC)C(=O)O)c3ccc(O)cc3)cc2S(=O)(=O)N1 [Example 5, 1,1-Dioxo-3,3-dibutyl-5-phenyl-7-methylthio-8-(N-{(R)-α-[N-((S)-1-carboxypropyl)carbamoyl]-4-hydroxybenzyl}carbamoylmethoxy)-2,3,4,5-tetrahydro-1,2,5-benzothiadiazepine]

IC50 [1]: 0.11 nM
Compound: CCCCC1(CCCC)CN(c2ccccc2)c2cc(SC)c(OCC(=O)N[C@@H](C(=O)N[C@H](C(=O)O)[C@@H](C)O)c3ccc(O)cc3)cc2S(=O)(=O)N1 [Example 8, 1,1-Dioxo-3,3-dibutyl-5-phenyl-7-methylthio-8-(N-{(R)-α-[N-((S)-1-carboxy-2-(R)-hydroxypropyl)carbamoyl]-4-hydroxybenzyl}carbamoylmethoxy)-2,3,4,5-tetrahydro-1,2,5-benzothiadiazepine]

IC50 [1]: 0.45 nM
Compound: CCCCC1(CCCC)CN(c2ccccc2)c2cc(SC)c(OCC(=O)N[C@@H](C(=O)NCC(=O)O)c3ccccc3)cc2S(=O)(=O)N1 [Example 1, 1,1-Dioxo-3,3-dibutyl-5-phenyl-7-methylthio-8-(N-{(R)-α-[N-(carboxymethyl)carbamoyl]benzyl}carbamovlmethoxv)-2,3,4,5-tetrahvdro-1. 2. 5-benzothiadiazepine]

IC50 [1]: 0.39 nM
Compound: CCCCC1(CCCC)CN(c2ccccc2)c2cc(SC)c(OCC(=O)N[C@@H](C(=O)N[C@@H](C)C(=O)O)c3ccccc3)cc2S(=O)(=O)C1 [Example 2, 1,1-Dioxo-3,3-dibutyl-5-phenyl-7-methylthio-8-(N-{(R)-α-[N′-((S)-1-carboxyethyl)carbamoyl]benzyl}carbamoylmethoxy)-2,3,4,5-tetrahydro-1,5-benzothiazepine]
